Broadly, the Kd is a measure of binding affinity in units of concentration.

This is an account of results in article PMC3514216, “SRC Homology 2 Domain Binding Sites in Insulin, IGF-1 and FGF receptor mediated signaling networks reveal an extensive potential interactome” (Cell Communication and Signaling : CCS, 2012).

Residues, ends and D or L forms follow the SMILES beside them.

One experiment addresses Plcg2_N SH2 domain (Homo sapiens, UniProt P16885). Further details: method as in earlier work. The following applies: N.B. = non binding; cited from earlier work.
Experiment [1] concerns the target T1, Crk SH2 domain (Homo sapiens, UniProt P46108). On the set-up: method as in earlier work. The following applies: N.B. = non binding; cited from earlier work.
In a further experiment the target is CrkL SH2 domain (Homo sapiens, UniProt P46109). On the set-up: method as in earlier work. The following applies: N.B. = non binding; cited from earlier work.
Chain of CrkL SH2 domain (P46109 14-102 limits assumed): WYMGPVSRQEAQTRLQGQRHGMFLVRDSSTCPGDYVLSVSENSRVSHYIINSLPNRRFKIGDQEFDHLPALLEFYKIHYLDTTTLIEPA
For another experiment, the target named is Vav1 SH2 domain (Homo sapiens, UniProt P15498). Further details: method as in earlier work. Conditions: N.B. = non binding; cited from earlier work.
Chain of Vav1 SH2 domain (P15498 671-765 limits assumed): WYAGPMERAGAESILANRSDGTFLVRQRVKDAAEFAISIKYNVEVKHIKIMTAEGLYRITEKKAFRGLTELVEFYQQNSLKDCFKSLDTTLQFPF
Another experiment concerns the target Nck1 SH2 domain (Homo sapiens, UniProt P16333). On the set-up: method as in earlier work. Conditions: N.B. = non binding; cited from earlier work.
For experiment [2], the target named is Gads SH2 domain. On the set-up: method as in earlier work. The following applies: SH2 protein microarray; N.B. = non binding; read-out: Protein Microarray (Macbeath) – KD; cited from earlier work.
Experiment [3] relates to Gads SH2 domain. Nature of the experiment: SPOT peptide array. In kind it is binding. Conditions: spot intensity as factor of array mean; GST-SH2 0.25 μM. In a few lines: (§1)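 GST-tagged SH2 domain probed onto SPOT-synthesized 11-mer pTyr peptides (pTyr at pos. 5); anti-GST + NIR-labelled secondary detection. Binder = spot intensity >3× array mean; non-binder <1× mean; 1–3× indeterminate. GST-only 'sticky' peptides excluded.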

Experiment [4] deals with T1, Crk SH2 domain. As to the kind of experiment: SPOT peptide array. Type of experiment: binding. The following applies: spot intensity as factor of array mean; GST-SH2 0.25 μM. In a few lines: as §1
Experiment [5] deals with T2, Src SH2 domain (Homo sapiens, UniProt P12931). Further details: method as in earlier work. The following applies: SH2 protein microarray; N.B. = non binding; read-out: Protein Microarray (Macbeath) – KD; cited from earlier work.
The target of experiment [6] is Grb7 SH2 domain. Further details: method as in earlier work. Conditions: SH2 protein microarray; N.B. = non binding; read-out: Protein Microarray (Macbeath) – KD; cited from earlier work.
Experiment [7] deals with Grb7 SH2 domain. Nature of the experiment: SPOT peptide array. Type of experiment: binding. Conditions: spot intensity as factor of array mean; GST-SH2 0.25 μM. In a few lines: as §1
The target in the next experiment is Grb2 SH2 domain (Homo sapiens, UniProt P62993). Nature of the experiment: SPOT peptide array. In kind it is binding. Conditions: spot intensity as factor of array mean; GST-SH2 0.25 μM. In a few lines: as §1
Chain of Grb2 SH2 domain (P62993 60-152 limits assumed): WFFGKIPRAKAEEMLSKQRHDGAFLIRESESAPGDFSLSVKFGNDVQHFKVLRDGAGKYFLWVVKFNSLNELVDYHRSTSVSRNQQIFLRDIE
Experiment [8] addresses T2, Src SH2 domain. Nature of the experiment: SPOT peptide array. The following applies: spot intensity as factor of array mean; GST-SH2 0.25 μM. In kind it is binding. In a few lines:
as §1

The next experiment has as its target T3, Abl2 SH2 domain (Homo sapiens, UniProt P42684).
T3 sequence (P42684 173-263 limits assumed): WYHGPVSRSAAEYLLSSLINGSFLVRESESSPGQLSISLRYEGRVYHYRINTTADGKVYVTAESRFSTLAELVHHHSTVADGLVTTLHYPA
Nature of the experiment: SPOT peptide array. In kind it is binding. Conditions: spot intensity as factor of array mean; GST-SH2 0.25 μM. In a few lines: as §1

T1 sequence (P46108 13-118 limits assumed): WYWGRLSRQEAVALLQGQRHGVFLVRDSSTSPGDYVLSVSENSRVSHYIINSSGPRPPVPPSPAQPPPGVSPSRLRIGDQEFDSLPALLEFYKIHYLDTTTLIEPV
Chain of Plcg2_N SH2 domain (P16885 532-635 limits assumed): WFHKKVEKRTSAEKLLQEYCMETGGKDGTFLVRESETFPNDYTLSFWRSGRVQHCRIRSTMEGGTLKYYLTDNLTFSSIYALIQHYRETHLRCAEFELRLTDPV

Regarding `CSCC[C@H](NC(=O)[C@@H]1CCCN1C(=O)[C@@H](N)[C@@H](C)O)C(=O)N[C@@H](CC(C)C)C(=O)N[C@@H](C)C(=O)NCC(=O)N[C@H](C(=O)N[C@@H](CO)C(=O)N[C@@H](CCC(=O)O)C(=O)N[C@@H](Cc1ccc(OP(=O)(O)O)cc1)C(=O)N[C@@H](CCC(=O)O)C(=O)N[C@@H](CC(C)C)C(=O)N1CCC[C@H]1C(=O)N[C@@H](CCC(=O)O)C(=O)N[C@@H](CC(=O)O)C(=O)N1CCC[C@H]1C(=O)N[C@@H](CCCNC(=N)N)C(=O)N[C@@H](CC(=O)O)C(=O)O)C(C)C` (HELM PEPTIDE1{T.P.M.L.A.G.V.S.E.[O=C([C@H](Cc1ccc(OP(=O)(O)O)cc1)N[*:1])[*:2]].E.L.P.E.D.P.R.D}$$$$V2.0), the “Protein Microarray (Macbeath) – KD” value on Plcg2_N SH2 domain, on Crk SH2 domain [1], at CrkL SH2 domain, at Vav1 SH2 domain and at Nck1 SH2 domain was “N.B” each time.

On to ARDIHHIDYpYKKTTNGRD, for which, on Gads SH2 domain [2], the Kd is 1010 nM. Moreover, the “Peptide array intensity (X mean)” value with Gads SH2 domain [3] and on Crk SH2 domain [4] was below 2x X Mean throughout.

For EIFTLGGSPpYPGVPVEED, the Kd in the experiment with Src SH2 domain [5] was 1790 nM; on Grb7 SH2 domain [6] it was 650 nM. Also, the “Peptide array intensity (X mean)” value in the experiment with Grb7 SH2 domain [7], on Grb2 SH2 domain, at Src SH2 domain [8] and at Abl2 SH2 domain was below 2x X Mean throughout.
